From patent publication US12492202B2, “Macrocyclic PAD4 inhibitors useful as immunosuppressant” (BRISTOL-MYERS SQUIBB COMPANY, priority 2020, dated 2025) come the findings set out here.

For the test, the target named is human PAD4 (hPAD4) (Homo sapiens (Human), UniProt Q9UM07). Kind of test: RFMS Human PAD4 Functional Assay. It counts as biochemical. The conditions noted are these: rapid-fire mass spectrum (RFMS) assay; 5 nM hPAD4 enzyme, 250 μM BAEE, 30 min preincubation at 37° C.
Sequence of human PAD4 (hPAD4) (Q9UM07 whole entry): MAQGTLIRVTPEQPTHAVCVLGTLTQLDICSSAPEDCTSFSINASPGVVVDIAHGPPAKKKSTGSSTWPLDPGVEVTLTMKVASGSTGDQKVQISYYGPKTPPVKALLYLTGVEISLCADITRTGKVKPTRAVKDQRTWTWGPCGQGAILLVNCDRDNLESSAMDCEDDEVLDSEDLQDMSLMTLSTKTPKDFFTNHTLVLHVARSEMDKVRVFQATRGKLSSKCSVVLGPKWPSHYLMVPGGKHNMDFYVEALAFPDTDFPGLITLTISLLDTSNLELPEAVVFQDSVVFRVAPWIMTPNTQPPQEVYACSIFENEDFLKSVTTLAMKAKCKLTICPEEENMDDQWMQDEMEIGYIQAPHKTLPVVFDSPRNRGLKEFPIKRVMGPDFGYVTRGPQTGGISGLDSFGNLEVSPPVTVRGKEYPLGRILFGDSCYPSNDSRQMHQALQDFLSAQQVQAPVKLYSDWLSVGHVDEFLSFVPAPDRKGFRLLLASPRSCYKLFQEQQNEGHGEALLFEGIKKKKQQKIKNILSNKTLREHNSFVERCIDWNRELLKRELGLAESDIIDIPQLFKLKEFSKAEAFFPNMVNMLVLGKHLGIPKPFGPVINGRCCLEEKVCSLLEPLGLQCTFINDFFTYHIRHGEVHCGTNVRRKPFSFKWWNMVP

Method: RFMS Human PAD4 Functional Assay: Compounds were solubilized in 100% DMSO to achieve a 10 mM compound concentration. Compound stock solutions were stored at RT. A series of dilutions were prepared in DMSO and mixed 8 times with 20 μL mixing volume. Final top concentration of compound in the assay is 50 μM. Final assay conditions were as follows: • Reaction volume: 26 μl • Assay buffer: 25 mM hepes, pH 7.5, 5 mM NaCl, 1 mM DTT, 0.2 mg/ml BSA, 0.01% CHAPS, 50 μM Calcium, and 5 μM TPEN • Final concentrations: 5 nM hPAD4 enzyme, 250 μM BAEE, and 0.5% DMSO • Total incubation time: 30 mins compound and enzyme preincubation at 37° C., 90 min enzyme/substrate reaction, 30 min reaction with phenyl glyoxal at 37° C. • Stop solution: 40 μl 5% TCA in ACN 0.13 μL of compound solution was added to 13 μL of 10 nM PAD4 in assay buffer. After 30 min 13 μl of 500 μM of BAEE was added in 25 mM hepes, pH 7.5, 5 mM NaCl, 1 mM DTT, 0.2 mg/ml BSA, 0.01% CHAPS, 50 μM Calcium, 5 μM TPEN was added and the reaction incubated for 90 min at 37° C. The enzymatic reaction was quenched by addition of 15 μl of 6.1N TCA, 100% Final Concentration is 20%, 35 μl of 8.5 mM phenyl glyoxal (final concentration 4 mM) is then added and the reaction is incubated for 30 min at 37° C. After 30 minutes the plates are spun down to remove all precipitate. The enzyme reaction was quenched with an equal volume of methanol containing internal standard (modified citrulline). Samples were loaded onto the Rapid Fire RF300 system (Agilent) wherein they were first sipped for 1000 ms and then directly loaded to a C18 separations cartridge using a mixture of acetonitrile containing 0.01% formic acid for 3000 ms desalting. The flow rate of the mobile phase was 1.5 ml/min. Once the samples were eluted from the cartridge, a mobile phase of acetonitrile containing 0.01% formic acid was used to move the samples into the mass spectrometer for 4000 ms at a flow rate of 1.25 ml/min/Sciex API5500 triple quadrupole mass spectrometer (Applied Biosystems) equipped with ESI was used to analyze the peptidyl citrulline and internal standard ions. MRM transition of product and internal standard were monitored at m/z 424.5 to 350.4 and m/z 293 to 247 respectively. The dwell time for each transition was set at 200 ms, and the ESI voltage was used at 5500 with a source temperature of 400° C. Extracted ion peaks for each transition were integrated using the Rapid Fire Integrator software. Peak area of analyte was normalized with internal standard).

`COc1cc(C(=O)N2CC3CCC2[C@@H]3N)cc2nc3n(c12)Cc1ccn(n1)-c1ccccc1OCCCn1c-3cc2ccccc21` (stereo partly drawn) [Example 19, ((7R)-7-amino-2-azabicyclo[2.2.1]heptan-2-yl)((E)-2^7-methoxy-1^1H,2^1H,4^1H-6-oxa-2(2,1)-benzo[d]imidazola-1(2,1)-indola-4(3,1)-pyrazola-5(1,2)-benzenacyclononaphane-2^5-yl)methanone] showed an IC50 of 5 nM.

For the compound `COc1cc(C(=O)N2C[C@H](N)C[C@@H](F)C2)cc2nc3n(c12)Cc1ccn(n1)-c1ccccc1OCCCn1c-3cc2ccccc21` [Example 20, ((3R,5R)-3-amino-5-fluoropiperidin-1-yl)((E)-2^7-methoxy-1^1H,2^1H,4^1H-6-oxa-2(2,1)-benzo[d]imidazola-l(2,1)-indola-4(3,1)-pyrazola-5(1,2)-benzenacyclononaphane-2^5-yl)methanone], the half-maximal inhibitory concentration (IC50) was 13 nM.

On to `COc1cc(C(=O)N2C[C@H](N)C[C@@H](F)C2)cc2nc3n(c12)Cc1cccc(c1)-c1ccccc1CCCCn1c-3cc2ccccc21` [Example 21, ((3R,5R)-3-amino-5-fluoropiperidin-1l-yl)(2^7-methoxy-1^1IH,2^1H-2(2,1)-benzo[d]imidazola-1(2,1)-indola-4(1,3),5(1,2)-dibenzenacyclononaphane-2^5-yl)methanone], for which the IC50 turned out to be 191 nM. This IC50 is about 15-fold higher than that of the compound before.

With `COc1cc(C(=O)N2CC3CCC2[C@@H]3N)cc2nc3n(c12)Cc1cccc(c1)-c1ccccc1CCCCn1c-3cc2ccccc21` (stereo partly drawn) [Example 22, ((1R,4R,7R)-7-amino-2-azabicyclo[2.2.1]heptan-2-yl)(2^7-methoxy-1^1H,2^1H-2(2,1)-benzo[d]imidazola-1(2,1)-indola-4(1,3),5(1,2)-dibenzenacyclononaphane-2^5-yl)methanone], inhibition was half-maximal at 53 nM (IC50).

Consider `COc1cc(C(=O)N2C[C@H](N)C[C@@H](F)C2)cc2nc3n(c12)Cc1cccc(c1)-c1ccccc1CCCCn1c-3cc2cccnc21` [Example 23, ((3R,5R)-3-amino-5-fluoropiperidin-1-yl)(2^7-methoxy-1^1H,2^1H,2(2,1)-dipyrrolo[2,3-b]pyridina-4(1,3),5(1,2)-dibenzenacyclononaphane-2^5-yl)methanone], for which half-maximal inhibition (IC50) required 109 nM.

On to `COc1cc(C(=O)N2C[C@H](N)C[C@@H](F)C2)cc2nc3n(c12)Cc1cc(F)cc(c1)-c1ccccc1CCCCn1c-3cc2cccnc21` [Example 25, ((3R,5R)-3-amino-5-fluoropiperidin-1-yl)(4^5-fluoro-2^7-methoxy-1^1H,2^1H-1,2(2,1)-dipyrrolo[2,3-b]pyridina-4(1,3),5(1,2)-dibenzenacyclononaphane-2^5-yl)methanone], for which the IC50 was 31 nM.

On to `COc1cc(C(=O)N2C[C@H](N)C[C@@H](F)C2)cc2nc3n(c12)Cc1cc(C#N)cc(c1)-c1ccccc1CCCCn1c-3cc2cccnc21` [Example 26, 2^5-((3R,5R)-3-amino-5-fluoropiperidine-1 carbonyl)-2^7-methoxy-1^1H,2^1H-1,2(2,1)-dipyrrolo[2,3-b]pyridina-4(1,3),5(1,2)-dibenzenacyclononaphane-4^5-carbonitrile], for which the IC50 turned out to be 21 nM.

Consider `COc1cc(C(=O)N2CC3CCC2[C@@H]3N)cc2nc3n(c12)Cc1cc(C#N)cc(c1)-c1ccccc1CCCCn1c-3cc2cccnc21` (stereo partly drawn) [Example 27, 2^5-((1R,4R,7R)-7-amino-2-azabicyclo[2.2.1]heptane-2-carbonyl)-2^7-methoxy-1^1H,2^1H-1,2(2,1)-dipyrrolo[2,3-b]pyridina-4(1,3),5(1,2)-dibenzenacyclononaphane-4^5-carbonitrile], for which inhibition was half-maximal at 49 nM (IC50).

In the case of `COc1cc(C(=O)N2C[C@H](N)C[C@@H](F)C2)cc2nc3n(c12)Cc1cc(C(N)=O)cc(c1)-c1ccccc1CCCCn1c-3cc2cccnc21` [Example 28, 2^5-((3R,5R)-3-amino-5-fluoropiperidine-1-carbonyl)-2^7-methoxy-1^1H,2^1H-1,2(2,1)-dipyrrolo[2,3-b]pyridina-4(1,3),5(1,2)-dibenzenacyclononaphane-4^5-carboxamide], the IC50 worked out at 62 nM.

Regarding `COc1cc(C(=O)N2CC3CCC2[C@@H]3N)cc2nc3n(c12)Cc1cc(C(N)=O)cc(c1)-c1ccccc1CCCCn1c-3cc2cccnc21` (stereo partly drawn) [Example 29, 2^5-((1R,4R,7R)-7-amino-2-azabicyclo[2.2.1]heptane-2-carbonyl)-2^7-methoxy-1^1H,2^1H-1,2(2,1)-dipyrrolo[2,3-b]pyridina-4(1,3),5(1,2)-dibenzenacyclononaphane-4^5-carboxamide], it took 59 nM to reach half-maximal inhibition (IC50).

On to `COc1cc(C(=O)N2C[C@H](N)C[C@@H](F)C2)cc2nc3n(c12)Cc1cncc(c1)-c1ccccc1CCCCn1c-3cc2cccnc21` [Example 30, ((3R,5R)-3-amino-5-fluoropiperidin-1-yl)(2^7-methoxy-1^1H, 2^1H-1,2(2,1)-dipyrrolo[2,3-b]pyridina-4(3,5)-pyridina-5(1,2)-benzenacyclononaphane-2^5-yl)methanone], for which the concentration for half-maximal inhibition (IC50) turned out to be 4 nM. Against the preceding compound, the IC50 is about 15-fold lower.

`COc1cc(C(=O)N2CC3CCC2[C@@H]3N)cc2nc3n(c12)Cc1cncc(c1)-c1ccccc1CCCCn1c-3cc2cccnc21` (stereo partly drawn) [Example 31, ((1R,4R,7R)-7-amino-2-azabicyclo[2.2.1]heptan-2-yl)(2^7-methoxy-1^1H,2^1H-1,2(2,1)-dipyrrolo[2,3-b]pyridina-4(3,5)-pyridina-5(1,2)-benzenacyclononaphane-2^5-yl)methanone]: the half-inhibitory concentration (IC50) was 10 nM.

As for `COc1cc(C(=O)N2CC3CCC2[C@@H]3N)cc2nc3n(c12)Cc1cc(ccn1)-c1ccccc1CCCCn1c-3cc2cccnc21` (stereo partly drawn) [Example 32, ((1R,4R,7R)-7-amino-2-azabicyclo[2.2.1]heptan-2-yl)(2^7-methoxy-1^1H,2^1H-1,2(2,1)-dipyrrolo[2,3-b]pyridina-4(2,4)-pyridina-5(1,2)-benzenacyclononaphane-2^5-yl)methanone], the IC50 was found to be 112 nM.

`COc1cc(C(=O)N2C[C@H](N)C[C@@H](F)C2)cc2nc3n(c12)Cc1cccc(c1)-c1ccccc1OCCCn1c-3cc2cccnc21` [Example 33, ((3R,5R)-3-amino-5-fluoropiperidin-1-yl)(2^7-methoxy-1^1H,2^1H-6-oxa-1,2(2,1)-dipyrrolo[2,3-b]pyridina-4(1,3),5(1,2)-dibenzenacyclononaphane-2^5-yl)methanone] gave a 50% inhibitory concentration (IC50) of 120 nM. The IC50 values of the last two compounds are within 1.5-fold of each other.

In the case of `COc1cc(C(=O)N2CC3CCC2[C@@H]3N)cc2nc3n(c12)Cc1cccc(c1)-c1ccccc1OCCCn1c-3cc2cccnc21` (stereo partly drawn) [Example 34, ((1R,4R,7R)-7-amino-2-azabicyclo[2.2.1]heptan-2-yl)(2^7-methoxy-1^1H,2^1H-6-oxa-1,2(2,1)-dipyrrolo[2,3-b]pyridina-4(1,3),5(1,2)-dibenzenacyclononaphane-2^5-yl)methanone], the midpoint of inhibition, the IC50, lay at 30 nM.

As to `COc1cc(C(=O)N2C[C@H](N)C[C@@H](F)C2)cc2nc3n(c12)Cc1cncc(c1)-c1ccccc1OCCCn1c-3cc2cccnc21` [Example 35, ((3R,5R)-3-amino-5-fluoropiperidin-1-yl)(2^7-methoxy-1^1H,2^1H-6-oxa-1,2(2,1)-dipyrrolo[2,3-b]pyridina-4(3,5)-pyridina-5(1,2)-benzenacyclononaphane-2^5-yl)methanone], the midpoint of inhibition, the IC50, lay at 14 nM.

In the case of `COc1cc(C(=O)N2CC3CCC2[C@@H]3N)cc2nc3n(c12)Cc1cncc(c1)-c1ccccc1OCCCn1c-3cc2cccnc21` (stereo partly drawn) [Example 36, ((1R,4R,7R)-7-amino-2-azabicyclo[2.2.1]heptan-2-yl)(2^7-methoxy-1^1H,2^1H-6-oxa-1,2(2,1)-dipyrrolo[2,3-b]pyridina-4(3,5)-pyridina-5(1,2)-benzenacyclononaphane-2^5-yl)methanone], half-maximal inhibition (IC50) required 7 nM.

In turn, `COc1cc(C(=O)N2C[C@H]3CC[C@@H]2[C@@H]3N)cc2nc3n(c12)CCC(=O)Nc1ccccc1OCCCn1c-3cc2cccnc21` [Example 40, 21-((1R,4R,7R)-7-amino-2-azabicyclo[2.2.1]heptane-2-carbonyl)-19-methoxy-7,8,16,17-tetrahydro-6H-benzo[b]benzo[4,5]imidazo[1,2-h]pyrido[3′,2′:4,5]pyrrolo[2,1-j][1]oxa[4,8,11]triazacyclotetradecin-15(14H)-one] yielded an IC50 of 30 nM.

Turning to `COc1cc(C(=O)N2C[C@H]3CC[C@@H]2[C@@H]3N)cc2nc3n(c12)Cc1cccc(c1)CCCCCCn1c-3cc2cccnc21` [Example 42, ((1R,4R,7R)-7-amino-2-azabicyclo[2.2.1]heptan-2-yl)(27-methoxy-11H,21H-1,2(2,1)-dipyrrolo[2,3-b]pyridina-4(1,3)-benzenacyclodecaphane-25-yl)methanone], the IC50 turned out to be 49.7 nM.

Consider `COc1cc(C(=O)N2C[C@H]3CC[C@@H]2[C@@H]3N)cc2nc3n(c12)Cc1cccc(c1)[C@@H]1CN(C)C[C@@H]1CCCCn1c-3cc2cccnc21` [Example 43, ((1R,4R,7R)-7-amino-2-azabicyclo[2.2.1]heptan-2-yl)((5^3R,5^4R)-2^7-methoxy-5′-methyl-1′H,2^1H-1,2(2,1)-dipyrrolo[2,3-b]pyridina-5(3,4)-pyrrolidina-4(1,3)-benzenacyclononaphane-2^5-yl)methanone], for which the IC50 worked out at 153 nM.

For the compound `COc1cc(C(=O)N2C[C@H]3CC[C@@H]2[C@@H]3N)cc2nc3n(c12)Cc1cccc(c1)C1[C@@H](CCCCn2c-3cc3cccnc32)C1(F)F` (stereo partly drawn) [Example 44, ((1R,4R,7R)-7-amino-2-azabicyclo[2.2.1]heptan-2-yl)((5^1S,5^2R)-5^3,5^3-difluoro-2^7-methoxy-1H,2^1H-1,2(2,1)-dipyrrolo[2,3-b]pyridina-4(1,3)-benzena-5(1,2)-cyclopropanacyclononaphane-2^5-yl)methanone], 216 nM corresponded to half-maximal inhibition (IC50). This IC50 and that of the compound before are within 1.5-fold of each other.

Take `COc1cc(C(=O)N2C[C@H](N)C[C@@H](F)C2)cc2nc3n(c12)Cc1cccc(c1)/C=C\CCCCn1c-3cc2cccnc21` [Example 51, ((3R,5R)-3-amino-5-fluoropiperidin-1-yl)((Z)-2^7-methoxy-1^1H,2^1H-1,2(2,1)-dipyrrolo[2,3-b]pyridina-4(1,3)-benzenacyclodecaphan-5-en-2^5-yl)methanone]: the 50% inhibitory concentration (IC50) came to 119 nM. This IC50 lies about 1.8-fold lower than the previous one.
